Measured values reported in US12357606B2, “Compositions and methods for treating defects in avascular cartilaginous tissue by directly administering one or more metabolites of simvastatin” (University of Cincinnati, priority 2017, dated 2025).

What was measured:
avascular tissue = experiment: Regeneration of avascular tissue upon direct administration; settings: for regeneration on administration: non-HMG-CoA reductase inhibitor metabolites
BMP-2 = settings: non-HMG-CoA reductase inhibitor metabolites
[1] = test system: BMP-2 mRNA expression in rat NP cells; experiment: BMP-2 mRNA expression in rat NP cells cultured in alginate beads (RT-qPCR); format: cell-based; settings: for BMP-2 mRNA expression with a GGTase inhibitor, level compared with SV: single GGTase inhibitor
From the text: Data are normalized with GAPDH and are expressed as ratio to vehicle (DMSO).
Findings from the investigation on SV stimulating endogenous BMP-2 expression in the treated NP cells, which in turn increases chondrogenic phenotype expression (aggrecan and type II collagen mRNA expression as well as sGAG content), were consistent with the above observations, validating that the small molecule is as efficacious in promoting chondrogenesis as to osteogenesis. […] SV has been prescribed widely for the treatment of hypercholesterolaemia and hypertriglyceridaemia. In humans, it undergoes rapid metabolism to form four major oxidative, NADPH-dependent metabolites, 3′-hydroxy SV (hSV), 6′-exomethylene SV (eSV), 3′,5′-dihydrodiol SV (dSV), and SVA (FIG. 5). […] This raised the question as to whether SVA is dominant in the entire scheme of BMP-2 upregulation. To test whether the levels of induced-BMP-2 by both SV and SVA, respectively, would be any different, the present investigators used the in vitro model system developed in the prior study to conduct the test. Rat NP cells harvested from tail discs were cultured initially in monolayer and then in alginate beads (Zhang H. et al. Spine, 2008; 33(16), the entire disclosure of which is incorporated herein by reference). Cells were treated with DMSO (vehicle), SV or SVA at 1 or 3 μM. Cells were then collected at pre-determined time points and with RNA extracted. Gene expression was analyzed by RT-qPCR. […] The BMP-2 level induced in the SVA group was 5-6 times higher than that in the SV one (FIG. 1A).
The classic mechanism understood for cholesterol lowering by statins is that statins act by competitively inhibiting HMG-CoA reductase, the first committed enzyme of the mevalonate (MVA) pathway. This competition reduces the rate by which HMG-CoA reductase is able to produce MVA, the next molecule in the cascade for the synthesis of prenylation enzyme substrates FPP and GGPP that eventually help produce cholesterol. As indicated previous studies by the inventors (Zhang H. N., Lin C. Y. Spine. 2008; 33(16), fully incorporated herein by reference), when SV was present, BMP-2 mRNA expression of NP cells always responded in a time and dose-dependent manner.

mevalonate conversion = experiment: Inhibition of mevalonate conversion; format: biochemical

Row | Compound | regeneration on administration (avascular tissue) | effect on BMP-2 upregulation (BMP-2) | BMP-2 mRNA expression with a GGTase inhibitor, level compared with SV [1] | further results
1 | 3′-hydroxy simvastatin [hSV] | promoted a degree of regeneration | also affect BMP-2 upregulation | – | –
2 | COC(=O)[C@H](CC(C)C)NC(=O)c1ccc(NC[C@@H](N)CS)cc1-c1ccccc1 [GGTI-286, reference compound] | – | – | able to increase BMP-2 mRNA expression, but the level was much lower than that found with SV | –
3 | C=C(C)[C@@H]1CC=C(CO)CC1 [POH, reference compound] | – | – | able to increase BMP-2 mRNA expression, but the level was much lower than that found with SV | –
4 | CCC(C)(C)C(=O)O[C@H]1C[C@@H](C)C=C2C=C[C@H](C)[C@H](CC[C@@H](O)C[C@@H](O)CC(=O)O)[C@H]21 [SVA, simvastatin beta-hydroxy acid] | – | – | – | mRNA expression of BMP-2 in cells treated with SVA compared to cells treated with SV ([1]; 1 μM, Day 1 to 3, rat NP cells): the same or doubled; BMP-2 level induced in the SVA group relative to the SV group ([1]; 1 μM, Day 7, rat NP cells): 5-6 times; difference in BMP-2 level between SVA and SV ([1]; 3 μM, rat NP cells): further augmented; inhibition of mevalonate conversion compared with SV (mevalonate conversion): more efficiently than SV; anabolic effect relative to SV alone (avascular tissue; regeneration of avascular tissue upon direct administration): 5-6 times
5 | CCC(C)(C)C(=O)OC1CC(C)C(O)C2=CC(O)C(C)C(CCC3CC(O)CC(=O)O3)C21 (centres unmarked) [dSV, 3′,5′-dihydrodiol simvastatin] | promoted a degree of regeneration | also affect BMP-2 upregulation | – | –
